Experimental data as given in patent publication US9394297B2, “Amides as pim inhibitors” (AMGEN INC., priority 2012, dated 2016).
Read-outs that look alike come from different tables or passages of the source.

What was measured:
KMS-12-BM cell lines = test: KMS12 #2 flow cytometry assay (phospho-BAD Ser112); format: cell-based; conditions: Homo sapiens, 110 min; KMS-12-BM cells, pBAD Ser112 by flow cytometry, 110 min with compound; read-out: KMS-12-Flow IC50 IP
Pim-2 = Pim-2 (Homo sapiens (Human), UniProt Q9P1W9); test: Pim-Mn enzyme assay (HTRF, 384-well), Pim-2; format: biochemical; conditions: read-out: Pim-2-Mn IC50 IP
Sequence of Pim-2 (Q9P1W9 whole entry): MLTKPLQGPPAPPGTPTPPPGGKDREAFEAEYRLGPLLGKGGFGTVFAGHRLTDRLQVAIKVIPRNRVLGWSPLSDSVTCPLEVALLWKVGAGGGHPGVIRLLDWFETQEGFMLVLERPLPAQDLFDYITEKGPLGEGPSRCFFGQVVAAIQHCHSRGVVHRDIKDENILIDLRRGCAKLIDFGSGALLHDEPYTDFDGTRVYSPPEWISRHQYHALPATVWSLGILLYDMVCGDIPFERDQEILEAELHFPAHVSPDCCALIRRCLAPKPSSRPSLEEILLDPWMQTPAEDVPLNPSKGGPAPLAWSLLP

Pim-1 = Pim-1 (Homo sapiens (Human), UniProt P11309); test: Pim-Mn enzyme assay (HTRF, 384-well), Pim-1; format: biochemical; conditions: read-out: Pim-1-Mn IC50 IP
Sequence of Pim-1 (P11309 whole entry): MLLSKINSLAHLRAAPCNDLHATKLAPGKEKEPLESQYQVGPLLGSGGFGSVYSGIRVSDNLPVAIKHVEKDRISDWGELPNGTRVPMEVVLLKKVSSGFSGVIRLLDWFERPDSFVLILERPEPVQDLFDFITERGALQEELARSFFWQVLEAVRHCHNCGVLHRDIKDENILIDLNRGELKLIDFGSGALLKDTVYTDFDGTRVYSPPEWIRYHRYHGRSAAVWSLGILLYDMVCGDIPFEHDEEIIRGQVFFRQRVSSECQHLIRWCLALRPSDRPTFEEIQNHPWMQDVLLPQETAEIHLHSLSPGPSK

[1] = Pim-2 enzyme 0.5 pM, ATP 1.5 μM, BAD (S112) 0.5 μM, HTRF, 22-point curve
[2] = Pim-1 enzyme 5 pM, ATP 1.5 μM, BAD (S112) 0.5 μM, HTRF, 22-point curve

Row | SMILES | IC50 (KMS-12-BM cell lines) [nM] | IC50 (Pim-2; [1]) [nM] | IC50 (Pim-1; [2]) [nM] | IC50 (Pim-2) [nM] | IC50 (Pim-1) [nM]
1 | Cc1ccccc1-c1nc2c(-c3cc4c([nH]3)CCNC4=O)cccc2nc1C [Example 426, 2-(2-Methyl-3-(o-tolyl)quinoxalin-5-yl)-6,7-dihydro-1H-pyrrolo[3,2-c]pyridin-4(5H)-one] | > 40000 | 127 | 52.3 |  | 
2 | Cc1nc2cccc(-c3cc4c([nH]3)C3(CC3)NC4=O)c2nc1NC(C)(C)C [Example 324, 2′-(3-(tert-butylamino)-2-methyl-5-quinoxalinyl)-1′H-spiro[cyclopropane-1,6′-pyrrolo[3,4-b]pyrrol]-4′(5′H)-one] | 91.7 |  | 0.139 | 0.223 | 
3 | Cc1nc2cccc(-c3cc4c([nH]3)CNC4=O)c2nc1NC1(C)CC1 [Example 357, 2-(2-Methyl-3-((1-methylcyclopropyl)amino)quinoxalin-5-yl)-5,6-dihydropyrrolo[3,4-b]pyrrol-4(1H)-one] | 15 | 0.57 |  |  | 0.463
4 | CC(C)(C)Nc1nc2c(-c3cc4c([nH]3)CCNC4=O)cccc2nc1Cl [Example 345, 2-(3-(tert-butylamino)-2-chloro-5-quinoxalinyl)-1,5,6,7-tetrahydro-4H-pyrrolo[3,2-c]pyridin-4-one] | 2730 | 2.25 | 1 |  | 
5 | C[C@H]1NC(=O)c2cc(-c3cccc4c(=O)n(C)c(NC5(C)CCC5)nc34)[nH]c21 [Example 465, 3-methyl-2-((1-methylcyclobutyl)amino)-8-((6R)-6-methyl-4-oxo-1,4,5,6-tetrahydropyrrolo[3,4-b]pyrrol-2-yl)-4(3H)-quinazolinone] | 35 | 0.13 | 0.074 |  | 
6 | Cc1nc2cccc(-c3cc4c([nH]3)CCNC4=O)c2nc1-c1ccoc1 [Example 431, 2-(3-(Furan-3-yl)-2-methylquinoxalin-5-yl)-6,7-dihydro-1H-pyrrolo[3,2-c]pyridin-4(5H)-one] | 5060 | 61.9 | 67.3 |  | 
7 | Cc1nc2cccc(-c3cc4c([nH]3)[C@H](CO)NC4=O)c2nc1NC1CC1 [Example 367, (R)-2-(3-(cyclopropylamino)-2-methylquinoxalin-5-yl)-6-(hydroxymethyl)-5,6-dihydropyrrolo[3,4-b]pyrrol-4(1H)-one] | 429 | 3.68 | 3.81 |  | 
8 | CC(C)(C)Nc1ncc2cccc(-c3cc4c([nH]3)CCNC4=O)c2n1 [Example 374, 2-(2-(tert-butylamino)quinazolin-8-yl)-6,7-dihydro-1H-pyrrolo[3,2-c]pyridin-4(5H)-one] | 769 | 3.62 | 2.54 |  | 
9 | Cc1nc2cccc(-c3cc4c(n3C(=O)OC(C)(C)C)CCNC4=O)c2nc1NC(C)(C)C [Example 290, tert-butyl 2-(3-(tert-butylamino)-2-methylquinoxalin-5-yl)-4-oxo-4,5,6,7-tetrahydro-1H-pyrrolo[3,2-c]pyridine-1-carboxylate] | 4190 | 35.8 | 39.7 |  | 
10 | Cc1nc2cccc(-c3[nH]c4c(c3Br)C(=O)NCC4)c2nc1NC(C)(C)C [Example 349, 3-bromo-2-(3-(tert-butylamino)-2-methyl-5-quinoxalinyl)-1,5,6,7-tetrahydro-4H-pyrrolo[3,2-c]pyridin-4-one] | 1000 | 0.874 | 0.625 |  | 
11 | Cc1nc2cccc(-c3cc4c([nH]3)CCN(C(=O)OC(C)(C)C)C4=O)c2nc1NC(C)(C)C [Example 291, tert-butyl 2-(3-(tert-butylamino)-2-methylquinoxalin-5-yl)-4-oxo-6,7-dihydro-1H-pyrrolo[3,2-c]pyridine-5(4H)-carboxylate] | 7920 | 65.2 | 99 |  | 
12 | Cc1nc2cccc(-c3cc4c([nH]3)CCNC4=O)c2nc1NC(=N)N [Example 447, 1-(3-methyl-8-(4-oxo-4,5,6,7-tetrahydro-1H-pyrrolo[3,2-c]pyridin-2-yl)quinoxalin-2-yl)guanidine] | 2630 | 139 | 133 |  | 
13 | CC(=O)Nc1nc2c(-c3cc4c([nH]3)CCNC4=O)cccc2nc1C [Example 445, N-(3-methyl-8-(4-oxo-4,5,6,7-tetrahydro-1H-pyrrolo[3,2-c]pyridin-2-yl)quinoxalin-2-yl)acetamide] | > 40000 | 20.1 | 27.9 |  | 
14 | COCCOCC(C)(C)Nc1nc2c(-c3cc4c([nH]3)CCNC4=O)cccc2nc1C [Example 317, 2-(3-((2-(2-methoxyethoxy)-1,1-dimethylethyl)amino)-2-methyl-5-quinoxalinyl)-1,5,6,7-tetrahydro-4H-pyrrolo[3,2-c]pyridin-4-one] | 1360 | 14.7 | 9.94 |  | 
15 | Cc1nc2cccc(-c3cc4c([nH]3)C3(CC3)NC4=O)c2nc1NC1(C)CC1 [Example 329, 2′-(2-methyl-3-((1-methylcyclopropyl)amino)-5-quinoxalinyl)-1′H-spiro[cyclopropane-1,6′-pyrrolo[3,4-b]pyrrol]-4′(5′H)-one] | 26.2 |  |  | 0.39 | 0.334
16 | Cc1nc2cccc(-c3cc4c([nH]3)CCNC4=O)c2nc1-c1ccccc1Cl [Example 427, 2-(3-(2-Chlorophenyl)-2-methylquinoxalin-5-yl)-6,7-dihydro-1H-pyrrolo[3,2-c]pyridin-4(5H)-one] | > 40000 | 82 | 23.3 |  | 
17 | CC(C)(C)Nc1nc2c(-c3cc4c([nH]3)CCNC4=O)cccc2nc1/C=N/O [Example 308, (E)-3-(tert-butylamino)-5-(4-oxo-4,5,6,7-tetrahydro-1H-pyrrolo[3,2-c]pyridin-2-yl)quinoxaline-2-carbaldehyde oxime] | 177 | 1.27 | 1.05 |  | 
18 | Cc1nc2cccc(-c3cc4c([nH]3)CCNC4=O)c2nc1-c1ccccn1 [Example 429, 2-(2-Methyl-3-(pyridin-2-yl)quinoxalin-5-yl)-6,7-dihydro-1H-pyrrolo[3,2-c]pyridin-4(5H)-one] | 8730 | 167 | 212 |  | 
19 | Cc1nc2ccc(F)c(-c3cc4c([nH]3)C3(CC3)NC4=O)c2nc1NC(C)(C)C [Example 295, 2′-(3-(tert-butylamino)-6-fluoro-2-methylquinoxalin-5-yl)-1′H-spiro[cyclopropane-1,6′-pyrrolo[3,4-b]pyrrol]-4′(5′H)-one] | 41 | 0.52 |  |  | 0.562
20 | Cc1nc2cccc(-c3cc4c([nH]3)C(CCO)NC4=O)c2nc1NC(C)(C)C (stereo not drawn) [Example 462, 2-(3-(tert-butylamino)-2-methyl-5-quinoxalinyl)-6-(2-hydroxyethyl)-5,6-dihydropyrrolo[3,4-b]pyrrol-4(1H)-one] | 122 | 0.47 | 0.51 |  | 
21 | Cc1nc2ccc(F)c(-c3cc4c([nH]3)CCNC4=O)c2nc1NC1(C)CCC1 [Example 376, 2-(6-fluoro-2-methyl-3-((1-methylcyclobutyl)amino)quinoxalin-5-yl)-6,7-dihydro-1H-pyrrolo[3,2-c]pyridin-4(5H)-one] | 37.6 | 0.136 | 0.191 |  | 
22 | Cc1cccc(C)c1-c1cnc2cccc(-c3cc4c([nH]3)CCNC4=O)c2n1 [Example 401, 2-(3-(2,6-dimethylphenyl)-5-quinoxalinyl)-1,5,6,7-tetrahydro-4H-pyrrolo[3,2-c]pyridin-4-one] | 18500 | 34.9 | 19.5 |  | 
23 | Cc1nc2cccc(-c3cc4c([nH]3)[C@@H](C)NC4=O)c2nc1NCC(F)(F)F [Example 294, (6R)-6-methyl-2-(2-methyl-3-((2,2,2-trifluoroethyl)amino)-5-quinoxalinyl)-5,6-dihydropyrrolo[3,4-b]pyrrol-4(1H)-one] | 165 | 2.23 | 1.23 |  | 
24 | CCC(C)(C)Nc1nc2c(-c3cc4c([nH]3)CCNC4=O)c(F)ccc2nc1C [Example 375, 2-(6-fluoro-2-methyl-3-(tert-pentylamino)quinoxalin-5-yl)-6,7-dihydro-1H-pyrrolo[3,2-c]pyridin-4(5H)-one] | 119 | 0.275 | 0.259 |  | 
25 | Cc1nc2cccc(-c3[nH]c4c(c3C)C(=O)NCC4)c2nc1NC(C)(C)C [Example 350, 2-(3-(tert-butylamino)-2-methyl-5-quinoxalinyl)-3-methyl-1,5,6,7-tetrahydro-4H-pyrrolo[3,2-c]pyridin-4-one] | 1510 | 3.38 | 2.31 |  | 
26 | Cc1nc2ccc(F)c(-c3cc4c([nH]3)CNC4=O)c2nc1NC(C)(C)C [Example 296, 2-(3-(tert-butylamino)-6-fluoro-2-methyl-5-quinoxalinyl)-5,6-dihydropyrrolo[3,4-b]pyrrol-4(1H)-one] | 36.2 | 0.501 | 0.508 |  | 
27 | Cc1nc2cccc(-c3cc4c([nH]3)[C@@H](CO)NC4=O)c2nc1NC1CC1 [Example 366, (S)-2-(3-(cyclopropylamino)-2-methylquinoxalin-5-yl)-6-(hydroxymethyl)-5,6-dihydropyrrolo[3,4-b]pyrrol-4(1H)-one] | 79.4 | 0.177 | 0.192 |  | 
28 | Cc1nc2cccc(-c3cc4n(n3)CCNC4=O)c2nc1NC(C)(C)C [Example 471, 2-(3-(tert-butylamino)-2-methylquinoxalin-5-yl)-6,7-dihydropyrazolo[1,5-a]pyrazin-4(5H)-one] | 15500 |  | 164 | 593 | 
29 | Cc1nc2cccc(-c3cc4c([nH]3)CCNC4=O)c2nc1NCC1(C)CC1 [Example 335, 2-(2-Methyl-3-(((1-methylcyclopropyl)methyl)amino)-5-quinoxalinyl)-1,5,6,7-tetrahydro-4H-pyrrolo[3,2-c]pyridin-4-one] | 99.3 | 0.996 | 1.22 |  | 
